Data: patent publication US20200163984A1, “USE OF ISOVALERYL SPIRAMYCIN I, II AND/OR III IN MANUFACTURING MEDICAMENT FOR TREATING AND/OR PREVENTING TUMOR, AND MEDICAMENT” (SHENYANG FUYANG PHARMACEUTICAL TECHNOLOGY CO., LTD., priority 2017, published 2020)

Key:
[1] = test system: transplanted tumor of human hepatoma cell HepG-2; assay: HepG-2 transplanted tumor in nude mice; conditions: for tumor volume and relative tumor volume compared with the model group: low, medium and high doses, P<0.05; for Tumor Volume (mm3) (d 1): d1; for mouse weight compared with the model group / Body Weight (g) (d1) / Body Weight (g) (d30): in vivo, mouse
Experimental: Then cell concentration was adjusted to 1×10^7/ml with matrigel, then each nude mouse was inoculated subcutaneously with 0.2 ml of cells at its right armpit and recorded as the first day of inoculation. When the tumor grows to be greater than or equal to 100 mm^3, the mice were randomly divided into 11 groups with 6 mice in each group: a model group, a cyclophosphamide group, isovaleryl spiramycin I groups with doses of 25, 50 and 100 mg/kg, isovaleryl spiramycin II groups with doses of 25, 50 and 100 mg/kg, and isovaleryl spiramycin III groups with doses of 25, 50 and 100 mg/kg. Each group was continuously administered intragastrically for 30 days with a dose of 20 ml/kg. The mice were sacrificed the next day after drug withdrawal and the indicators were tested. The long diameter and short diameter of the tumor, and the body weight of each mouse were recorded every 3 days from drug administration to nude mouse sacrifice.
The body weight of the nude mice and the long diameter (a) and short diameter (b) of the transplanted tumor were measured every 3 days, and the tumor volume (v), relative tumor volume (RTV) and relative tumor proliferation rate (T/C) are calculated respectively according to the following formulas, wherein V=a×b^2/2; RTV=V/V0 (V0 is the tumor volume before administration, V is the tumor volume before sacrifice), and T/C (%)=treatment group RTV/model control group RTV×100%.
Each mouse was weighed and sacrificed. After the tumor was completely stripped off from the body of the mouse, the non-tumor tissues such as blood stains and fat were removed to weigh the tumor and calculate the tumor growth inhibition rate. The average tumor weight of each group of mice is used as an indicator of efficacy. Tumor growth inhibition rate (%)=(1−the average tumor weight of the treatment group/the average tumor weight of the model group)×100%.

[2] = test system: spleen lymphocytes (ConA, LPS stimulation); assay: Spleen lymphocyte proliferation activity of Lewis lung cancer tumor-bearing mice; type: in vivo, C57BL/6 mouse; conditions: for lymphocyte activity compared with the control group: Lewis tumor-bearing mice, 13, 26 and 52 mg/kg, P<0.05, P<0.01; for B Lymphocyte Proliferation Activity (%) / T Lymphocyte Proliferation Activity (%): n = 6
Experimental: (§1) In the Lewis lung cancer model, the mice inoculated with the tumor were randomly divided into groups with 10 mice in each group the next day of inoculation. The groups included: a model control group, a positive drug cyclophosphamide control group (CTX, 30 mg/kg), isovaleryl spiramycin I groups with doses of 13, 26 and 52 mg/kg; isovaleryl spiramycin II groups with doses of 13, 26 and 52 mg/kg; isovaleryl spiramycin III groups with doses of 13, 26 and 52 mg/kg. Each group was continuously administered intragastrically for 15 days with a dose of 20 ml/kg.
The serum-free RPMI 1640 medium was placed in a dish, and then the dish was placed on ice. The spleen was aseptically taken and gently ground with a sterile glass slide to prepare a single cell suspension. The single cell suspension was filtered with a double-layer sterile gauze, washed twice with serum-free RPMI1640 medium, and centrifuged at 1,500 rpm for 5 min to remove the obtained supernatant. 2 mL of red blood cell lysate was added to the treated suspension, the mixture was allowed to stand for 2 min, and then 8 mL of RPMI 1640 medium was added, centrifuging was performed at 1,500 rpm for 5 min to remove the obtained supernatant, and then washing was performed twice with the RPMI 1640 medium. […] A single cell suspension was prepared by using a RPMI 1640 medium containing 10% fetal bovine serum.
The spleen cell suspension was taken, and the cell density was adjusted to 1×10^7/mL. Each mouse was set with: A. a control well: 100 μL of RPMI 1640 medium was added; B. a concanavalin A (ConA) stimulation well: 100 μL (10 mg/L) of concanavalin A (ConA) solution was added; and C. a bacterial endotoxin (LPS) stimulating well: 100 μL (20 mg/L) of bacterial endotoxin (LPS) solution was added. The above cells were added to a 96-well plate, and then 100 μL of spleen cell suspension was added to each of the above wells. After the culture plate was transferred to a saturated humidity condition with a volume fraction of 5% CO2 at 37° C. for incubation for 72 h, 10 μL of MTT solution (5 g/L) was added to each well, and incubation was continued to be performed for 4 hours under the same conditions, then the culture was terminated. 100 μl of a triple solution (SDS 10 g, 10M HCl 0.1 mL, […] 5 mL, diluted with distilled water to 100 mL) was added, and the plate was shaken for 10 min to fully dissolve the crystals. The Optical Density (OD) of each well was measured at 570 nm, and the lymphocyte proliferation rate was calculated. Lymphocyte proliferation rate (%)=[(T-C)/C]×100%, wherein T was the Optical Density of the stimulation well, and C is the Optical Density of the control well.

[3] = Thymus index and spleen index of Lewis lung cancer tumor-bearing mice; conditions: n = 6
Experimental: as §1

[4] = HepG-2, high dose (100 mg/kg in method) i.g. 30 days
[5] = HepG-2, low dose (25 mg/kg in method) i.g. 30 days
[6] = HepG-2, medium dose (50 mg/kg in method) i.g. 30 days

## CO[C@@H]1[C@@H](O[C@@H]2O[C@H](C)[C@@H](O[C@H]3C[C@@](C)(O)[C@@H](OC(=O)CC(C)C)[C@H](C)O3)[C@H](N(C)C)[C@H]2O)[C@@H](CC=O)C[C@@H](C)[C@@H](O[C@H]2CC[C@H](N(C)C)[C@@H](C)O2)/C=C/C=C/C[C@@H](C)OC(=O)C[C@H]1O [Isovaleryl spiramycin I, isovaleryl spiramycin I]
[1]; [4]
  Relative Tumor Proliferation Rate (T/C): 27.49%
  tumor growth inhibition rate: 68.22%
[1]; [5]
  Relative Tumor Proliferation Rate (T/C): 65.03%
  tumor growth inhibition rate: 24.43%
[1]; HepG-2
  tumor volume and relative tumor volume compared with the model group: significantly lower
[1]; [6]
  Relative Tumor Proliferation Rate (T/C): 42.12%
  tumor growth inhibition rate: 57.93%
[1]; HepG-2 nude mice, 25 mg/kg
  Inhibition Rate (%): 24.43%
  Relative Tumor Proliferation Rate (T/C): 65.03%
  Relative Tumor Volume (RTV): 10.89 ± 2.67
  Tumor Weight: 1.84 ± 0.23 g
  Tumor Volume (mm3) (d 1): 114.02 ± 11.68 mm3
  Tumor Volume (mm3) (d30): 1248.33 ± 337.59 mm3
[1]; HepG-2 nude mice, 50 mg/kg
  Inhibition Rate (%): 57.93%
  Relative Tumor Proliferation Rate (T/C): 42.12%
  Relative Tumor Volume (RTV): 7.05 ± 3.35
  Tumor Weight: 1.02 ± 0.45 g
  Tumor Volume (mm3) (d 1): 122.31 ± 4.68 mm3
  Tumor Volume (mm3) (d30): 851.37 ± 371.80 mm3
[1]; HepG-2 nude mice, 100 mg/kg
  Inhibition Rate (%): 68.22%
  Relative Tumor Proliferation Rate (T/C): 27.49%
  Relative Tumor Volume (RTV): 4.60 ± 3.39
  Tumor Weight: 0.77 ± 0.44 g
  Tumor Volume (mm3) (d 1): 110.06 ± 9.58 mm3
  Tumor Volume (mm3) (d30): 481.16 ± 326.94 mm3
[1]
  mouse weight compared with the model group: no significant changes
[1]; 25 mg/kg
  Body Weight (g) (d1): 21.36 ± 1.67 g
  Body Weight (g) (d30): 23.24 ± 1.33 g
[1]; 50 mg/kg
  Body Weight (g) (d1): 21.47 ± 1.58 g
  Body Weight (g) (d30): 23.64 ± 1.67 g
[1]; 100 mg/kg
  Body Weight (g) (d1): 21.37 ± 1.36 g
  Body Weight (g) (d30): 22.867 ± 1.57 g
[2]
  lymphocyte activity compared with the control group: significantly increase
[2]; dose 13 mg/kg
  B Lymphocyte Proliferation Activity (%): 41.63 ± 7.06 %
  T Lymphocyte Proliferation Activity (%): 25.27 ± 8.20 %
[2]; dose 26 mg/kg
  B Lymphocyte Proliferation Activity (%): 44.81 ± 4.41 %
  T Lymphocyte Proliferation Activity (%): 36.24 ± 2.15 %
[2]; dose 52 mg/kg
  B Lymphocyte Proliferation Activity (%): 32.71 ± 1.84%
  T Lymphocyte Proliferation Activity (%): 22.26 ± 4.33%
[3]; dose 13 mg/kg
  Spleen Index (%): 0.72 ± 0.21%
  Thymus Index (%): 0.12 ± 0.03%
[3]; dose 26 mg/kg
  Spleen Index (%): 0.62 ± 0.15%
  Thymus Index (%): 0.13 ± 0.04%
[3]; dose 52 mg/kg
  Spleen Index (%): 0.77 ± 0.14 %
  Thymus Index (%): 0.12 ± 0.06%

## CCC(=O)O[C@@H]1CC(=O)O[C@H](C)C/C=C/C=C/[C@H](O[C@H]2CC[C@H](N(C)C)[C@@H](C)O2)[C@H](C)C[C@H](CC=O)[C@H](O[C@@H]2O[C@H](C)[C@@H](O[C@H]3C[C@@](C)(O)[C@@H](OC(=O)CC(C)C)[C@H](C)O3)[C@H](N(C)C)[C@H]2O)[C@H]1OC [Isovaleryl spiramycin III, isovaleryl spiramycin III]
[1]; [4]
  Relative Tumor Proliferation Rate (T/C): 32.71%
  tumor growth inhibition rate: 63.28%
[1]; [5]
  Relative Tumor Proliferation Rate (T/C): 64.69%
  tumor growth inhibition rate: 38.92%
[1]; HepG-2
  tumor volume and relative tumor volume compared with the model group: significantly lower
[1]; [6]
  Relative Tumor Proliferation Rate (T/C): 43.18%
  tumor growth inhibition rate: 60.54%
[1]; HepG-2 nude mice, 25 mg/kg
  Inhibition Rate (%): 38.92%
  Relative Tumor Proliferation Rate (T/C): 64.69%
  Relative Tumor Volume (RTV): 10.83 ± 2.47
  Tumor Weight: 1.48 ± 0.42 g
  Tumor Volume (mm3) (d 1): 116.67 ± 8.32 mm3
  Tumor Volume (mm3) (d30): 1261.48 ± 283.95 mm3
[1]; HepG-2 nude mice, 50 mg/kg
  Inhibition Rate (%): 60.54%
  Relative Tumor Proliferation Rate (T/C): 43.18%
  Relative Tumor Volume (RTV): 7.23 ± 2.57
  Tumor Weight: 0.96 ± 0.44 g
  Tumor Volume (mm3) (d 1): 119.43 ± 10.86 mm3
  Tumor Volume (mm3) (d30): 852.87 ± 293.29 mm3
[1]; HepG-2 nude mice, 100 mg/kg
  Inhibition Rate (%): 63.28%
  Relative Tumor Proliferation Rate (T/C): 32.71%
  Relative Tumor Volume (RTV): 5.48 ± 3.19
  Tumor Weight: 0.89 ± 0.46 g
  Tumor Volume (mm3) (d 1): 118.26 ± 6.57 mm3
  Tumor Volume (mm3) (d30): 641.99 ± 364.25 mm3
[1]
  mouse weight compared with the model group: no significant changes
[1]; 25 mg/kg
  Body Weight (g) (d1): 21.07 ± 1.24 g
  Body Weight (g) (d30): 23.94 ± 1.67 g
[1]; 50 mg/kg
  Body Weight (g) (d1): 21.25 ± 1.86 g
  Body Weight (g) (d30): 24.36 ± 1.53 g
[1]; 100 mg/kg
  Body Weight (g) (d1): 20.47 ± 2.24 g
  Body Weight (g) (d30): 23.64 ± 1.44 g
[2]
  lymphocyte activity compared with the control group: significantly increase
[2]; dose 13 mg/kg
  B Lymphocyte Proliferation Activity (%): 33.91 ± 2.65%
  T Lymphocyte Proliferation Activity (%): 20.17 ± 5.18%
[2]; dose 26 mg/kg
  B Lymphocyte Proliferation Activity (%): 34.69 ± 0.34%
  T Lymphocyte Proliferation Activity (%): 18.51 ± 2.60%
[2]; dose 52 mg/kg
  B Lymphocyte Proliferation Activity (%): 32.28 ± 1.27%
  T Lymphocyte Proliferation Activity (%): 18.25 ± 1.89%
[3]; dose 13 mg/kg
  Spleen Index (%): 0.62 ± 0.25%
  Thymus Index (%): 0.12 ± 0.10%
[3]; dose 26 mg/kg
  Spleen Index (%): 0.68 ± 0.11%
  Thymus Index (%): 0.11 ± 0.07%
[3]; dose 52 mg/kg
  Spleen Index (%): 0.74 ± 0.23%
  Thymus Index (%): 0.13 ± 0.06%
